# Assay: recombinant barcode read abundance after kanamycin selection (control-corrected) (log10(CPM+1)); higher = more efficient recombination; sequences stand for … in AGTGCAGAGAAAATCGGCCAGTTTTCTCTGCCTGCAGTCCGCATGCCGT…AGATTTATGCAGCGGACTGCCTTTCTCCCAAAGTGATAAACCGGACAGTATCATGGACCGGTTTTCCCGGTAATCCGTATTTGCAAGGTTGGTTTCACT; site = the 11-nt target
# Method in brief: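 In a pooled screen in E. coli, targets were paired with target-binding loops of the IS621 bridge RNA. Each oligo carried a promoter, a target, a barcode and the first 104 bridge RNA bases driven by J23119, and was Gibson-cloned into a vector holding the remaining 73 bp and a T7-inducible recombinase before co-electroporation with a donor plasmid. Duplicate platings went onto chloramphenicol/ampicillin LB agar as the control or onto chloramphenicol/ampicillin/kanamycin with 0.1 mM IPTG. Recombination efficiency is the averaged, control-corrected count per million of barcodes at recombinant junctions, given as log10(CPM+1).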
# 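Also: IS621 recombinase and bridge RNA in Escherichia coli cells.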
row,Sequence,recombinant barcode read abundance (log10)
1,CTACTAGCTTGGGTTCTAACCTGTTGCAG (site CTACTAGCTTT),0.0541
2,CTACTAGCTTGGGTTCTAACCTGTTGCAT (site CTACTAGCTAT),1.18
3,CTACTAGCTTGGGTTCTAACCTGTTGCAT (site CTACTAGCTCT),0.115
4,CTACTAGCTTGGGTTCTAACCTGTTGCAT (site CTACTAGCTGT),0.167
5,CTACTAGCTTGGGTTCTAACCTGTTGCAT (site CTACTAGCTTT),0.139
6,CTAGAAGCTTGGGTTCTAACCTGTTGCGT (site CTAGAAGCTAC),2.52
7,CTAGAAGCTTGGGTTCTAACCTGTTGCGT (site CTAGGAGCTAC),1.05
8,CTAGACTCTTGGGTTCTAACCTGTTGCAA (site CTAGACTCTAT),0.644
9,CTAGACTCTTGGGTTCTAACCTGTTGCAA (site CTAGACTCTCT),0.287
10,CTAGACTCTTGGGTTCTAACCTGTTGCAA (site CTAGACTCTGT),0.0566
11,CTAGACTCTTGGGTTCTAACCTGTTGCAA (site CTAGACTCTTT),2
12,CTAGACTCTTGGGTTCTAACCTGTTGCTC (site CTAGACTCTAA),0.0434
13,CTAGACTCTTGGGTTCTAACCTGTTGCTC (site CTAGACTCTCA),0.0281
14,CTAGACTCTTGGGTTCTAACCTGTTGCTC (site CTAGACTCTGA),2.84
15,CTAGACTCTTGGGTTCTAACCTGTTGCTC (site CTAGACTCTTA),0.275
16,CTAGACTCTTGGGTTCTAACCTGTTGCTT (site CTAGACTCTAA),2.89
17,CTAGACTCTTGGGTTCTAACCTGTTGCTT (site CTAGACTCTCA),0.304
18,CTAGACTCTTGGGTTCTAACCTGTTGCTT (site CTAGACTCTGA),0.0758
19,CTAGACTCTTGGGTTCTAACCTGTTGCTT (site CTAGACTCTTA),0.261
20,CTAGATGCTTGGGTTCTAACCTGTTGCGA (site AGTTCATCTAT),0.0418
21,CTAGATGCTTGGGTTCTAACCTGTTGCGA (site CTAGATGCTTC),1.94
22,CTAGATTCTTGGGTTCTAACCTGTTGCAT (site ACGATAACTTG),0.0921

row,Sequence,recombinant barcode read abundance (log10)
1,CTAGATTCTTGGGTTCTAACCTGTTGCAT (site CTAGATTCTAT),2.61
2,CTAGCAACTTGGGTTCTAACCTGTTGCTT (site CTAGCAACTAA),0.26
3,CTAGCAACTTGGGTTCTAACCTGTTGCTT (site CTAGCAGCTAT),0.124
4,CTAGCAGCTTGGGTTCTAACCTGTTGCAT (site CTAGCAACTAA),0.197
5,CTAGCAGCTTGGGTTCTAACCTGTTGCAT (site CTAGCAGCTAT),0.434
6,CTAGCCACTTGGGTTCTAACCTGTTGCTA (site CTAGCCACTTA),1.01
7,CTAGCCACTTGGGTTCTAACCTGTTGCTA (site CTAGCGACTCA),0.38
8,CTAGGAACTTGGGTTCTAACCTGTTGCTA (site AGGTTCCCTCC),0.454
9,CTAGGAACTTGGGTTCTAACCTGTTGCTA (site CTAGGAACTTA),0.635
10,CTAGGAGCTTGGGTTCTAACCTGTTGCTC (site CTAGGAGCTAA),0.241
11,CTAGGAGCTTGGGTTCTAACCTGTTGCTC (site CTAGGAGCTCA),0.222
12,CTAGGAGCTTGGGTTCTAACCTGTTGCTC (site CTAGGAGCTGA),0.885
13,CTAGGAGCTTGGGTTCTAACCTGTTGCTC (site CTAGGAGCTTA),0.126
14,CTAGTGACTTGGGTTCTAACCTGTTGCGA (site CTAGTGACTAC),0.0588
15,CTAGTGACTTGGGTTCTAACCTGTTGCGA (site CTAGTGACTCC),0.576
16,CTAGTGACTTGGGTTCTAACCTGTTGCGA (site CTAGTGACTGC),0.0599
17,CTAGTGACTTGGGTTCTAACCTGTTGCGA (site CTAGTGACTTC),1.99
18,CTAGTGACTTGGGTTCTAACCTGTTGCGG (site CTAGTGACTAC),0.0948
19,CTAGTGACTTGGGTTCTAACCTGTTGCGG (site CTAGTGACTCC),1.74
20,CTAGTGACTTGGGTTCTAACCTGTTGCGG (site CTAGTGACTGC),0.141
21,CTAGTGACTTGGGTTCTAACCTGTTGCGG (site CTAGTGACTTC),0.352
22,CTAGTGTCTTGGGTTCTAACCTGTTGCAC (site CTAGTCACTGT),0.198

row,Sequence,recombinant barcode read abundance (log10)
1,CTAGTGTCTTGGGTTCTAACCTGTTGCAC (site CTAGTGTCTGT),1.88
2,CTAGTGTCTTGGGTTCTAACCTGTTGCTA (site CTAGTGTCTTA),2.72
3,CTAGTGTCTTGGGTTCTAACCTGTTGCTA (site GTAGTGTCTTA),0.0109
4,CTATAGGCTTGGGTTCTAACCTGTTGCCT (site ATATACGCTAG),0.0845
5,CTATAGGCTTGGGTTCTAACCTGTTGCCT (site CTATAGGCTAG),0.159
6,CTATATACTTGGGTTCTAACCTGTTGCCA (site CTATATACTTG),0.154
7,CTATATACTTGGGTTCTAACCTGTTGCCA (site CTGTATACTTG),0
8,CTATATACTTGGGTTCTAACCTGTTGCTT (site CTAAATACTAA),0.088
9,CTATATACTTGGGTTCTAACCTGTTGCTT (site CTATATACTAA),0.804
10,CTATGAACTTGGGTTCTAACCTGTTGCCA (site CTATGAACTTG),0.283
11,CTATGAACTTGGGTTCTAACCTGTTGCCA (site GACATTCCTAA),0.0769
12,CTATGACCTTGGGTTCTAACCTGTTGCAT (site CTATGACCTAA),0.0613
13,CTATGACCTTGGGTTCTAACCTGTTGCAT (site CTATGACCTAC),0.139
14,CTATGACCTTGGGTTCTAACCTGTTGCAT (site CTATGACCTAG),0.19
15,CTATGACCTTGGGTTCTAACCTGTTGCAT (site CTATGACCTAT),0.568
16,CTATGACCTTGGGTTCTAACCTGTTGCGT (site CTATGACCTAA),0.191
17,CTATGACCTTGGGTTCTAACCTGTTGCGT (site CTATGACCTAC),2.11
18,CTATGACCTTGGGTTCTAACCTGTTGCGT (site CTATGACCTAG),0.211
19,CTATGACCTTGGGTTCTAACCTGTTGCGT (site CTATGACCTAT),1.26
20,CTATGACCTTGGGTTCTAACCTGTTGCTT (site CTATGACCTAA),1.4
21,CTATGACCTTGGGTTCTAACCTGTTGCTT (site CTATGACCTAC),0.0411
22,CTATGACCTTGGGTTCTAACCTGTTGCTT (site CTATGACCTAG),1.26

row,Sequence,recombinant barcode read abundance (log10)
1,CTATGACCTTGGGTTCTAACCTGTTGCTT (site CTATGACCTAT),0.394
2,CTATGGACTTGGGTTCTAACCTGTTGCAA (site CTATGGACTAT),0.0174
3,CTATGGACTTGGGTTCTAACCTGTTGCAA (site CTATGGACTCT),0.23
4,CTATGGACTTGGGTTCTAACCTGTTGCAA (site CTATGGACTGT),0.274
5,CTATGGACTTGGGTTCTAACCTGTTGCAA (site CTATGGACTTT),1.39
6,CTATGGACTTGGGTTCTAACCTGTTGCAT (site CTATGGACTAT),0.348
7,CTATGGACTTGGGTTCTAACCTGTTGCAT (site CTATGGACTCT),0.614
8,CTATGGACTTGGGTTCTAACCTGTTGCAT (site CTATGGACTGT),0.217
9,CTATGGACTTGGGTTCTAACCTGTTGCAT (site CTATGGACTTT),0.0336
10,CTATGTCCTTGGGTTCTAACCTGTTGCGT (site CTATGTCCTAC),1.44
11,CTATGTCCTTGGGTTCTAACCTGTTGCGT (site GGATGTCCTAC),0.228
12,CTATGTGCTTGGGTTCTAACCTGTTGCAT (site CTATGTGCTAA),0.295
13,CTATGTGCTTGGGTTCTAACCTGTTGCAT (site CTATGTGCTAC),0.168
14,CTATGTGCTTGGGTTCTAACCTGTTGCAT (site CTATGTGCTAG),0.0201
15,CTATGTGCTTGGGTTCTAACCTGTTGCAT (site CTATGTGCTAT),0.109
16,CTATTCACTTGGGTTCTAACCTGTTGCCT (site CTATTCACTAG),1.34
17,CTATTCACTTGGGTTCTAACCTGTTGCCT (site CTATTCCCTAG),0.0733
18,CTATTCACTTGGGTTCTAACCTGTTGCCT (site CTATTCGCTAG),0.0529
19,CTATTCACTTGGGTTCTAACCTGTTGCCT (site CTATTCTCTAG),0.091
20,CTATTCTCTTGGGTTCTAACCTGTTGCTA (site CTATACTCTTG),0.115

# From the supplement of paper PMC11208160
